According to ChEMBL document CHEMBL1201862, “PubChem BioAssay data set” (2004):
Each block holds one compound with its values, some of them ahead of it. Active and inactive are the calls of the source.

How the values were obtained:
[1] = Counterscreen for IDE inhibitors: Luminescence-based cell-based high throughput dose response assay to identify compounds that are cytotoxic to HEK cells. [Related pubchem assays: 434962 (Primary screen (IDE inhibitors in singlicate)), 449730 (Counterscreen (Cytotoxicity in triplicate)), 435028 (Confirmation (IDE inhibitors in triplicate)) …; format: functional; settings: HEK293
Insulin-degrading enzyme = biological target: T1, Insulin-degrading enzyme (Homo sapiens, UniProt P14735); test: Dose Response: Fluorescence polarization-based cell-based high throughput dose response assay for inhibitors of insulin-degrading enzyme (IDE). [Related pubchem assays: 434962 (Primary screen (IDE inhibitors in singlicate)), 449730 (Counterscreen (Cytotoxicity in triplicate)), 435028 (Confirmation (IDE inhibitors in triplicate)), 434984 (Summary …; format: functional
T1 sequence (P14735 whole entry): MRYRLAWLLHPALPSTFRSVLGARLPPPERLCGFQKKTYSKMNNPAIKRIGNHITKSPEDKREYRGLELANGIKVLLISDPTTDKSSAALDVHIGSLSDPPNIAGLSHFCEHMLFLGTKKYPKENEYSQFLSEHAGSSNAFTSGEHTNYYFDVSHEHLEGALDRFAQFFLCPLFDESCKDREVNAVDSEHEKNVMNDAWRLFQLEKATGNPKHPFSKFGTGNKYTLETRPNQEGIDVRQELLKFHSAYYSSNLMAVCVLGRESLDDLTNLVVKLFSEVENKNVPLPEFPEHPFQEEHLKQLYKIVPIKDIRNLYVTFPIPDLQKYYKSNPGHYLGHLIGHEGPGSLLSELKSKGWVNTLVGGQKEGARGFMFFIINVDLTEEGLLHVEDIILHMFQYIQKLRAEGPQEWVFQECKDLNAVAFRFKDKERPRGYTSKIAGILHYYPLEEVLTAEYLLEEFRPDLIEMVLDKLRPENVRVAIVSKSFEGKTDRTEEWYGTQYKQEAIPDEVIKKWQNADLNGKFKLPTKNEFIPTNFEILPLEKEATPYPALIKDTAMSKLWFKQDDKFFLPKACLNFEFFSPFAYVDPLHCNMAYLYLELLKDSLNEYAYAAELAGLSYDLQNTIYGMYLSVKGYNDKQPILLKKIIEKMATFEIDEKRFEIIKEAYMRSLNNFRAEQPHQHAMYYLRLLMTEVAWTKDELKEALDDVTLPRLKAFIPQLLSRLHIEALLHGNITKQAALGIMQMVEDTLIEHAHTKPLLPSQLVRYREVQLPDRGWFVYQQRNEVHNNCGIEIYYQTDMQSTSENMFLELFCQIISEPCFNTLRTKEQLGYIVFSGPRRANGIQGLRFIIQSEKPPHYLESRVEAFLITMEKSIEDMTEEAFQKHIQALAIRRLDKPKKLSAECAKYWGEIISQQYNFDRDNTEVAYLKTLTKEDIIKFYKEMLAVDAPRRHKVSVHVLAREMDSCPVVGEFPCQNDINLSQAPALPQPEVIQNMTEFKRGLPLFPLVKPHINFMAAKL

[2] = HEK-293T cell viability reduction – luminescence, B-cell screen hits, cytotoxicity control for BCR NF-kB inhibitor project, dose response (AID 489021); format: functional, cell-based;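 also: HEK-293T cells carrying an NF-kB luciferase reporter; cells exposed to compound for about 14 hours before viability readout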
Aminopeptidase N = biological target: T2, Aminopeptidase N (Plasmodium falciparum FcB1/Columbia, UniProt O96935); test: malaria alanyl aminopeptidase activity blockers – biochemical, fluorogenic H-Leu-NHMec substrate, 1536-well (AID 1445); parameters: species or system Plasmodium falciparum 3D7, 3D7
T2 sequence (O96935 whole entry): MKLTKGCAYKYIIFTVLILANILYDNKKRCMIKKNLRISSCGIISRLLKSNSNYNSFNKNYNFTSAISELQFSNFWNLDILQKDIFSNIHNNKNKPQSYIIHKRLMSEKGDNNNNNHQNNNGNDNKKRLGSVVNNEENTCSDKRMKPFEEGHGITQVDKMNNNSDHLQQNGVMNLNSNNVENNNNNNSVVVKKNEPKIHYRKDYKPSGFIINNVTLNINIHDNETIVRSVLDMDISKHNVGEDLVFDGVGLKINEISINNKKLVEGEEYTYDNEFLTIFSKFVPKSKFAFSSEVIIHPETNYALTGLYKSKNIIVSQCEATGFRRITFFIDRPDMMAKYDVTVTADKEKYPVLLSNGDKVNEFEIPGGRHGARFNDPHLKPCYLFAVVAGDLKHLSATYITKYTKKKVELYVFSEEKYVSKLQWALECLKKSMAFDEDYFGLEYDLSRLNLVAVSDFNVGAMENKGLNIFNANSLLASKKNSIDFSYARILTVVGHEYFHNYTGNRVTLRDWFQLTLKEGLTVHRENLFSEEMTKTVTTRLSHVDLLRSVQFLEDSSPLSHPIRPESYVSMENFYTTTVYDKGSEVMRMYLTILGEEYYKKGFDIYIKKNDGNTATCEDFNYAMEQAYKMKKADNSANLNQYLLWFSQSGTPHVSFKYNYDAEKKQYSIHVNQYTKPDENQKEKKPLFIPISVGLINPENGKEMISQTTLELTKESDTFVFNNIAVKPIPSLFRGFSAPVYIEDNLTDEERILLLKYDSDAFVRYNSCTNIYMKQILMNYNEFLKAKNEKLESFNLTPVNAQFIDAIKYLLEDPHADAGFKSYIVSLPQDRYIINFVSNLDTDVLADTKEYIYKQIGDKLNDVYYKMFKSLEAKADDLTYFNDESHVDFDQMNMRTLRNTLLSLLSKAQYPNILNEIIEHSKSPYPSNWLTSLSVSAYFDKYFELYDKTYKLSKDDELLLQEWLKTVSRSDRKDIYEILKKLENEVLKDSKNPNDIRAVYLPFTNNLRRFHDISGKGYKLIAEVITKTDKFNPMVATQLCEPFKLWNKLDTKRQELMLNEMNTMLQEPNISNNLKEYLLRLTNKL

[3] = biological target: Photoreceptor-specific nuclear receptor (Homo sapiens, UniProt Q9Y5X4); format: functional;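 also: potency for compounds that break the NR2E3 corepressor complex and count as activators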
[4] = biological target: Peroxisome proliferator-activated receptor gamma/Nuclear receptor corepressor 2 (Homo sapiens, UniProt P37231+Q9Y618); format: functional
Coagulation factor XII = biological target: T3, Coagulation factor XII (Homo sapiens, UniProt P00748); format: functional;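 also: activated factor XIIa alpha cleaving a fluorogenic AMC peptide substrate; inhibitor potency from loss of enzyme activity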
T3 sequence (P00748 whole entry): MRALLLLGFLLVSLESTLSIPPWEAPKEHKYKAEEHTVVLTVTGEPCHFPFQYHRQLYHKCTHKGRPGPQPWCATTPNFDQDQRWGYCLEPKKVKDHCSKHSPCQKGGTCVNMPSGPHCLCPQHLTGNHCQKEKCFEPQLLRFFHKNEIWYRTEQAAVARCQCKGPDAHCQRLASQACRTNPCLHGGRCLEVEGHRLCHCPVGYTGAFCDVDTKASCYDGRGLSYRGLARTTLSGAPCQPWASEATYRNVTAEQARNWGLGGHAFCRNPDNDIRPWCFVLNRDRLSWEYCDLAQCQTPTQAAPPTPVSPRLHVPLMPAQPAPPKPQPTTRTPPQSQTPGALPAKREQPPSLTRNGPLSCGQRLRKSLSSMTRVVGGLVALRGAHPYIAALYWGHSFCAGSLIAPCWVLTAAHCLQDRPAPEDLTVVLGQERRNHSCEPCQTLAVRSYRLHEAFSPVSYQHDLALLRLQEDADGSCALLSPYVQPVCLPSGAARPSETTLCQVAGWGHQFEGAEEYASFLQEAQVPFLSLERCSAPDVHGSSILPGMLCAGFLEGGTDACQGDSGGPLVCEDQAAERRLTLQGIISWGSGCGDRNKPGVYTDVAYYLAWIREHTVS

[5] = viability of uninfected HEp-2 cells – cell-based, HTS, cytotoxicity control for RSV inhibitor project, dose response (AID 2410); format: functional; settings: human respiratory syncytial virus
[6] = biological target: T4, Ubiquitin-conjugating enzyme E2 N (Homo sapiens, UniProt P61088); format: functional;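 also: Dose-response confirmation in a TR-FRET assay detecting UBC13-driven polyubiquitin chain formation, inhibition measured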
T4 sequence (P61088 whole entry): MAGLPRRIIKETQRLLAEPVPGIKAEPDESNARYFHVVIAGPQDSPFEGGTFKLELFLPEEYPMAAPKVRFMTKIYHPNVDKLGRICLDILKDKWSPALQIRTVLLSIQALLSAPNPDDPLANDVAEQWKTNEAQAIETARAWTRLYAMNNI

[7] = biological target: T5, Apoptotic protease-activating factor 1 (Homo sapiens, UniProt O14727); format: functional
T5 sequence (O14727 whole entry): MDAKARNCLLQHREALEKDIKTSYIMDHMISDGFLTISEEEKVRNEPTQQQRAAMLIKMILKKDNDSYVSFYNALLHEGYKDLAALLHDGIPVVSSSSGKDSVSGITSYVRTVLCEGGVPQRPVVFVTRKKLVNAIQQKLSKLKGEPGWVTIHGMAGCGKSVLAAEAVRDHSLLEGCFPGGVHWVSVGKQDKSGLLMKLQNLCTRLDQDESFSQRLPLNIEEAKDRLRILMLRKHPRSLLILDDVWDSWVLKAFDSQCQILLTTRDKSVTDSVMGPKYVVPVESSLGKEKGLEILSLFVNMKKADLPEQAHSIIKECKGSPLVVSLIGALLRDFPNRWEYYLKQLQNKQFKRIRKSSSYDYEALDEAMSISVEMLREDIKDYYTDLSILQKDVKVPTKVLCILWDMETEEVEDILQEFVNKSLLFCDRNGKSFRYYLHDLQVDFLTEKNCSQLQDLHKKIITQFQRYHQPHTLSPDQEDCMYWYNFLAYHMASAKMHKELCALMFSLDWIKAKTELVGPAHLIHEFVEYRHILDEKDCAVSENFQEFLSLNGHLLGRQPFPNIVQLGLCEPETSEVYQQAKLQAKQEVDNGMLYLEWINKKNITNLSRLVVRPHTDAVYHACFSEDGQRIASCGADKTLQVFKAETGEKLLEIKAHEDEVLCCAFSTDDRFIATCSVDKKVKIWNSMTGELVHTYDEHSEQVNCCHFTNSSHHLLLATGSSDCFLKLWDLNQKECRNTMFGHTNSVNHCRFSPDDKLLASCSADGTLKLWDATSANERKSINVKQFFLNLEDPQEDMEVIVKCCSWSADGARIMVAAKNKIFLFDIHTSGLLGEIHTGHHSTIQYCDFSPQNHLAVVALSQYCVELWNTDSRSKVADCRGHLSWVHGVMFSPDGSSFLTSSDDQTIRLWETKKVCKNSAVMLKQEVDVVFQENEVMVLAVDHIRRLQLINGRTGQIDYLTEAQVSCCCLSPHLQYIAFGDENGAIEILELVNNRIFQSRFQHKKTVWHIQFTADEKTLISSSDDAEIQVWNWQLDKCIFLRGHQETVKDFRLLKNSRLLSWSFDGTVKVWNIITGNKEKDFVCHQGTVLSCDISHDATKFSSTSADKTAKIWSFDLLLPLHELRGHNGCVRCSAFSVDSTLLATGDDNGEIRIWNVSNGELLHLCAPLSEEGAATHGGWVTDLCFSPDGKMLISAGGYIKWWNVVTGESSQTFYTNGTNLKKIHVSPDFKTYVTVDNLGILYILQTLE

[8] = biological target: Neurotensin receptor type 1 (Homo sapiens, UniProt P30989); format: functional;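 also: Image-based confirmatory dose-response assay measuring agonist activity at NTR1; NTR1-expressing U2OS osteosarcoma cells imaged for beta-arrestin GFP spot formation; agonist potency where compounds increase beta-arrestin recruitment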
Neurotensin receptor type 1, sequence (P30989 whole entry): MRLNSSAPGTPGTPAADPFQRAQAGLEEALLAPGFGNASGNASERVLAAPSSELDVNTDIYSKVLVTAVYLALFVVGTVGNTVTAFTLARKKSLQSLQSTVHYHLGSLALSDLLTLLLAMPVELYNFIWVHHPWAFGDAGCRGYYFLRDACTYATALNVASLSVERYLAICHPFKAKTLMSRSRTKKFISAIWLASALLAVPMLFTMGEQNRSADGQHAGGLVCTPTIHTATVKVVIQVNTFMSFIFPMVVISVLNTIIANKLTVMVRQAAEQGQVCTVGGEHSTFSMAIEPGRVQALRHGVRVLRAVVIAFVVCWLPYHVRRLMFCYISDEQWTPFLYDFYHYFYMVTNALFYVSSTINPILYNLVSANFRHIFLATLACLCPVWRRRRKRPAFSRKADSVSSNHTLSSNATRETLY

Photoreceptor-specific nuclear receptor, sequence (Q9Y5X4 whole entry): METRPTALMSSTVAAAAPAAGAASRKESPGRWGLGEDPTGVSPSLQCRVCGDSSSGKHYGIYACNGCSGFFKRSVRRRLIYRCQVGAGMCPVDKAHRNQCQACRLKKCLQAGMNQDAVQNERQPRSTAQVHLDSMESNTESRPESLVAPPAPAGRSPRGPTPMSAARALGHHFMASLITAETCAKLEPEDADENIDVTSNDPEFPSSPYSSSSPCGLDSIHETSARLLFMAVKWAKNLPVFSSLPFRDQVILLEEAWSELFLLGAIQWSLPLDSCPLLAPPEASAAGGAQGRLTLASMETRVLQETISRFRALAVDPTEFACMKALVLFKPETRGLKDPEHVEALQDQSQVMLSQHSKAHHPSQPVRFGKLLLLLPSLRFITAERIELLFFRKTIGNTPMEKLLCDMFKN
Peroxisome proliferator-activated receptor gamma/Nuclear receptor corepressor 2, sequence (P37231 whole entry): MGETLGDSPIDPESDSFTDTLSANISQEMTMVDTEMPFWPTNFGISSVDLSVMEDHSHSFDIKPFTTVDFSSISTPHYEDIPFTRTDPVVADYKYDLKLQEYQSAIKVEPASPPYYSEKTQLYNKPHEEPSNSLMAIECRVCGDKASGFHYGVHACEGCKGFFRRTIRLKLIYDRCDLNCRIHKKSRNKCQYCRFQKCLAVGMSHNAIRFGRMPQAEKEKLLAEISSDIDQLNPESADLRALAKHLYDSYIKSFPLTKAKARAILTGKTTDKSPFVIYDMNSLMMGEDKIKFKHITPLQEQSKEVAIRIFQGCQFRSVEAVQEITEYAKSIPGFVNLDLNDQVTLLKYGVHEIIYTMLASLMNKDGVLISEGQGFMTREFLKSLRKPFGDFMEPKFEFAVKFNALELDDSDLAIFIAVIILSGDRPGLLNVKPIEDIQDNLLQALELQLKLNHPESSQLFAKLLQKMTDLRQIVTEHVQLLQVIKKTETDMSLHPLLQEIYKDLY
Peroxisome proliferator-activated receptor gamma/Nuclear receptor corepressor 2, sequence (Q9Y618 whole entry): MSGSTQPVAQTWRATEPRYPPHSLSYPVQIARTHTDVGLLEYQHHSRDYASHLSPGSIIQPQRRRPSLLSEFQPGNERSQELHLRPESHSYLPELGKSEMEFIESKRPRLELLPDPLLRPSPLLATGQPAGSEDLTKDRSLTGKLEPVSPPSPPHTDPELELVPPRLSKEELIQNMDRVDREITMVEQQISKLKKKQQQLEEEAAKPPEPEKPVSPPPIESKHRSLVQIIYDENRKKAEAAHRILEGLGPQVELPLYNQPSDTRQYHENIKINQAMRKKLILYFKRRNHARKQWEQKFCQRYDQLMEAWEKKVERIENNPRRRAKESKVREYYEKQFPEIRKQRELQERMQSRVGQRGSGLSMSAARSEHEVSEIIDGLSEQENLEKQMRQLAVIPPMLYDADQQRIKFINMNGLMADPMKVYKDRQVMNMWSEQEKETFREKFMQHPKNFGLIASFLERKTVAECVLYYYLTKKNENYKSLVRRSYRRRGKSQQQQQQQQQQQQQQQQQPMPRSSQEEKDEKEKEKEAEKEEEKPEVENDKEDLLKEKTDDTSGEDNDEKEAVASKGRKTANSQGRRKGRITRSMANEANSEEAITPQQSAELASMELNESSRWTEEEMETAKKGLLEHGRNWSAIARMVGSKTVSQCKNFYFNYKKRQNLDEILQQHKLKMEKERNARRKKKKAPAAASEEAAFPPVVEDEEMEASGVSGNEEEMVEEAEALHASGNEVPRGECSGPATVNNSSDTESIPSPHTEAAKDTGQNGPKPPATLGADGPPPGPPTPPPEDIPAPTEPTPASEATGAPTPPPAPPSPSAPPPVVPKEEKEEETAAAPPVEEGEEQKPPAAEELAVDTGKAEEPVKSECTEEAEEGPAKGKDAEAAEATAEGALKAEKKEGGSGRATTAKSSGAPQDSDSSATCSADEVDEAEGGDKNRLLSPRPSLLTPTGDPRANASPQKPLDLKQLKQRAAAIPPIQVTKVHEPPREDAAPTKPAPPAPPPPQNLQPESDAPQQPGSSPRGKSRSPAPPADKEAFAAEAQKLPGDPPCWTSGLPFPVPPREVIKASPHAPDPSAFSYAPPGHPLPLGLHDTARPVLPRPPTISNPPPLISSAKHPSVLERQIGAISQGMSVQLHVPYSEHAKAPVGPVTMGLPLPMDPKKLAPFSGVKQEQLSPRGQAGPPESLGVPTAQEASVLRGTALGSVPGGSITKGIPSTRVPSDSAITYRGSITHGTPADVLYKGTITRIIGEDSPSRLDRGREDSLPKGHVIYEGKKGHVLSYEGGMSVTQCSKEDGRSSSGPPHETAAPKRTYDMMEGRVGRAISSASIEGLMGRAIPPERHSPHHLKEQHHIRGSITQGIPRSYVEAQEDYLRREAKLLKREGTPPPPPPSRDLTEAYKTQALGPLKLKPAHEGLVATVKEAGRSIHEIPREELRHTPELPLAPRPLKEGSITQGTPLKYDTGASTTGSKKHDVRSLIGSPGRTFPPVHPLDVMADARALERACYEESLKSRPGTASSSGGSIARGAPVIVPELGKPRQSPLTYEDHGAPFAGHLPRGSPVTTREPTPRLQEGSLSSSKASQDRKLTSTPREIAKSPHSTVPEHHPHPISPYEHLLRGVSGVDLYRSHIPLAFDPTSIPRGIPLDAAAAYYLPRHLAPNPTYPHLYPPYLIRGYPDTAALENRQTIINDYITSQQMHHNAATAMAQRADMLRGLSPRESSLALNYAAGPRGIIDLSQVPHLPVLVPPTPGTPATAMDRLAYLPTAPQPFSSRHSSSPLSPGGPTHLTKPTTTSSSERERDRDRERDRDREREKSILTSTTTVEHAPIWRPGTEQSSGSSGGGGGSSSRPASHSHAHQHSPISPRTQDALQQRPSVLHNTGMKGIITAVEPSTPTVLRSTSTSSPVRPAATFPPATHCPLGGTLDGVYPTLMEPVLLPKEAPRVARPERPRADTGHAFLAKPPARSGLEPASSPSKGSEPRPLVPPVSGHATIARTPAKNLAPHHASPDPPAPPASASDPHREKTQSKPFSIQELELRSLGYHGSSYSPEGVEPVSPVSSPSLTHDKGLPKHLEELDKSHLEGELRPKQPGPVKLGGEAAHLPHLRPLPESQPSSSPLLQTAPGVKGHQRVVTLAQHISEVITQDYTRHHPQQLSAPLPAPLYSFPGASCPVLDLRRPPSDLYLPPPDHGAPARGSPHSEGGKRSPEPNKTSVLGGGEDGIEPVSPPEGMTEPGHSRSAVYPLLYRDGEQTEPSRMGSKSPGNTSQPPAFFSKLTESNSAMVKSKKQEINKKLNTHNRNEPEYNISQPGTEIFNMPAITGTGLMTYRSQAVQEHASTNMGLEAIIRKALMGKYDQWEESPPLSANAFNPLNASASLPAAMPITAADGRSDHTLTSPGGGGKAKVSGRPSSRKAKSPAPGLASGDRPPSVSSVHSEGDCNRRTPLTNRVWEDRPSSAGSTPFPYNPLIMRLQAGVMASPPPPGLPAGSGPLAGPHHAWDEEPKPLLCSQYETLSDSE

SMILES: CCOC(=O)N1CCN(c2[nH]cnc3c4cc(OC)ccc4nc2-3)CC1
IC50 [1]: 18.4 µM (not active)
IC50 (Insulin-degrading enzyme): 9.15 µM (active)
IC50 [2]: 56.9 µM (inactive)

SMILES: Cc1cccc(N2C(=O)/C(=C/Nc3ccccc3-c3nnc(S)nc3O)c3ccccc3C2=O)n1
IC50 (Aminopeptidase N): 60.4 µM (active)
IC50 [1]: > 55.7 µM (not active)
IC50 (Insulin-degrading enzyme): 12.2 µM (not active)

IC50 [3]: > 39.8 µM (not active)
IC50 [4]: 4.7 µM (active)
IC50 (Coagulation factor XII): > 50 µM (inactive)
SMILES: Cc1nn(CCc2nnn[nH]2)c2nc(-c3ccc(Br)cc3)cc(C(F)(F)F)c12

SMILES: Cc1ccc(NC(=O)CN(C)C(=O)c2ccc3[nH]c4c(c3c2)CC(C)CC4)cc1 (centres undefined)
CC50 [5]: 28.2 µM (active)
IC50 [6]: > 20 µM (inactive)
IC50 [7]: > 100 µM (inactive)
IC50 (cells): 22.2 µM (active)

EC50 [8]: 9.68 µM (active)
SMILES: CCOc1ccc(C(=O)Nc2nnc(NC(=S)Nc3ccccc3)s2)cc1
